The record followed here is ChEMBL document CHEMBL4414576, “Recent advancements in mechanistic studies and structure activity relationship of FoF1 ATP synthase inhibitor as antimicrobial agent” (Eur J Med Chem, 2019).

Series [1] in a line: Antifungal activity against Cryptococcus. It counts as functional.
Series [2] has as its system Sporotrichum. Nature of the series: Antifungal activity against Sporotrichum. The format is functional.
Series [3] concerns Trichophyton. The series is described as follows: Antifungal activity against Trichophyton. The format is functional.
The test system of series [4] is Staphylococcus aureus. The series is described as follows: Antimicrobial activity against Staphylococcus aureus. The format is functional.
Series [5] relates to Candida. The series is described as follows: Antifungal activity against Candida. The format is functional.
The test system of series [6] is Bacillus subtilis. Nature of the series: Antimicrobial activity against Bacillus subtilis. The format is functional.
Series [7] has as its system Microsporum. The series is described as follows: Antifungal activity against Microsporum. It counts as functional.
In series [8] the test system is Micrococcus luteus. The series is described as follows: Antimicrobial activity against Sarcina lutea. The format is functional.
The test system of series [9] is Microbacterium. Nature of the series: Antimicrobial activity against Microbacterium species. It counts as functional.
The subject of series [10] is Streptococcus pyogenes. The series is described as follows: Antimicrobial activity against Streptococcus pyogenes. The format is functional.
The subject of series [11] is Enterococcus faecalis. Nature of the series: Antimicrobial activity against Streptococcus faecalis. It counts as functional.
For series [12], the system named is Pseudomonas aeruginosa. Nature of the series: Antimicrobial activity against Pseudomonas aeruginosa after 1 to 5 days by two-fold dilution. It counts as functional, organism-based.
Series [13] relates to Mycolicibacterium smegmatis. Nature of the series: Antimicrobial activity against Mycobacterium smegmatis after 1 to 5 days by two-fold dilution. The format is functional, organism-based.
In series [14] the test system is Bacillus subtilis. The series is described as follows: Antimicrobial activity against Bacillus subtilis after 1 to 5 days by two-fold dilution. It counts as functional, organism-based.
Series [15] concerns Staphylococcus aureus. Nature of the series: Antimicrobial activity against Staphylococcus aureus after 1 to 5 days by two-fold dilution. The format is functional, organism-based.
The subject of series [16] is Escherichia coli. The series is described as follows: Antimicrobial activity against Escherichia coli after 1 to 5 days by two-fold dilution. It counts as functional, organism-based.
For series [17], the system named is Streptococcus pneumoniae. The series is described as follows: Antimicrobial activity against Streptococcus pneumoniae. The format is functional.
The test system of series [18] is Saccharomyces cerevisiae. The series is described as follows: Inhibition of F1F0-ATP synthase in yeast relative to control. As to conditions: concentration not given here.
A short description of series [19]: Selectivity index, ratio of IC50 for ATP synthase in Mycobacterium tuberculosis H37Rv to IC50 for mitochondrial ATP synthase isolated from swiss albino mouse liver.
The test system of series [20] is Mycobacterium tuberculosis. The series is described as follows: Antimicrobial activity against Mycobacterium tuberculosis H37Rv. The format is functional, organism-based.
The species named for series [21] is Mus musculus. The series is described as follows: Inhibition of mitochondrial ATP synthase isolated from Swiss albino mouse liver at 100 uM using succinate as substrate after 1 hr relative to control.
A short description of series [22]: Inhibition of ATP synthase in Mycobacterium smegmatis. The arrangement: species or system Mycolicibacterium smegmatis.
The nature of series [23]: Selectivity index, ratio of CC50 for human HepG2 cells to MIC of Mycobacterium tuberculosis H37Rv. It counts as toxicity.
Series [24] concerns the target ATP synthase (Mycobacterium tuberculosis) (UniProt P9WPU9+P9WPU5+P9WPU7+P9WPV5+P9WPS1+P9WPV1+P9WPV7+P9WPV3). Nature of the series: Inhibition of ATP synthase in Mycobacterium tuberculosis H37Rv whole cell lysate after 18 hrs at 10X of MIC relative to control. The format is subcellular.

≈ marks a conversion by molar mass, not a printed value. Starred links: 1 amine or outer side, 2 acyl side, 3 side chain; linkers in the order of their positions; H or OH if unused. Non-standard residues stand in square brackets, D forms with d. Residues, ends and D or L forms follow the SMILES beside them. *: point of attachment. X2 = CCC(=O)C[C@@H](O)CC(C)C[C@H](N[*:1])C(=O)[*:2]; Leu(3R-OH) = CC(C)[C@@H](O)[C@H](N)C(=O)O; NH((S)CH(Me)CH2NMe2) = C[C@@H](CN(C)C)N*; Pro(4S-Me) = C[C@@H]1CN[C@H](C(=O)O)C1; X1 = CC[C@@H](C)/C=C/C(=O)*; Aib = CC(C)(N)C(=O)O; βAla = NCCC(=O)O

Usually MIC stands for the least concentration at which growth counts as inhibited. Read a low MIC as greater potency. Regarding `CCC(=O)C[C@@H](O)CC(C)C[C@H](NC(=O)[C@@H]1C[C@H](C)CN1C(=O)/C=C/[C@H](C)CC)C(=O)N[C@H](C(=O)NC(C)(C)C(=O)N[C@@H](CC(C)C)C(=O)N[C@@H](CC(C)C)C(=O)NC(C)(C)C(=O)NC(C)(C)C(=O)NCCC(=O)N[C@@H](C)CN(C)C)[C@H](O)C(C)C` (stereo partly drawn) (X1-[Pro(4S-Me)][X2][Leu(3R-OH)][Aib]LL[Aib][Aib][βAla]-{NH((S)CH(Me)CH2NMe2)}), the MIC in series [1] lay within 1 to 10 mg/L (≈ 0.821 to 8.21 µM); in [2], 1 to 10 mg/L (≈ 0.821 to 8.21 µM); in [3], 1 to 10 mg/L (≈ 0.821 to 8.21 µM); in series [4], 2.52 to 50 mg/L (≈ 2.07 to 41 µM); in [5] it was 1 to 10 mg/L (≈ 0.821 to 8.21 µM); in [6] it was 2.52 to 50 mg/L (≈ 2.07 to 41 µM). For the same molecule, the MIC in [7] lay within 1 to 10 mg/L (≈ 0.821 to 8.21 µM); in [8], 2.52 to 50 mg/L (≈ 2.07 to 41 µM); in [9] it was 2.52 to 50 mg/L (≈ 2.07 to 41 µM); in [10], 2.52 to 50 mg/L (≈ 2.07 to 41 µM); in series [11], 2.52 to 50 mg/L (≈ 2.07 to 41 µM).

By IC50 is commonly meant the midpoint of a concentration-inhibition curve. Low values mean greater potency, high ones weaker potency. As to `FC(F)(F)Oc1cccc(CNCCNC2C3CC4CC(C3)C2C4)c1` (centres undefined), the MIC in series [12] turned out to be 12.5 mg/L (≈ 35.3 µM); in series [14] it was 6.25 mg/L (≈ 17.6 µM); in series [15] it was 6.25 mg/L (≈ 17.6 µM); in series [16], 6.25 mg/L (≈ 17.6 µM). The IC50 in series [13] worked out at 20 µM.

In [17], `COc1nc2ccc(Br)cc2cc1[C@H](c1ccccc1)[C@](O)(CCN(C)C)c1ccc(Cl)cc1` gave an MIC of 1 mg/L (≈ 1.85 µM).

Usually inhibition stands for the drop in the measured response relative to a control, in per cent. Low values mean a weak effect, high ones a strong effect. In turn, `COc1cc(=O)oc(/C=C/C=C/C=C/C(C)=C/[C@]2(C)O[C@H](C)[C@](C)(O)[C@H]2O)c1C` displayed an inhibition in series [18] of 85%.

Regarding `COc1ccc(/C=C2/S/C(=N/N=C/c3ccccc3O)NC2=O)cc1`, the Ratio IC50 in series [19] stood at 51. In series [20], this molecule came in with an MIC of 0.5 mg/L (≈ 1.41 µM). For the same molecule, the inhibition is 32% in series [21] and 15 to 30% in series [24]. The molecule also yielded an IC50 in series [22] of 0.312 µM. Moreover, the selectivity ratio in series [23] was 80.
